Tested on: C. acnes (ATCC 6919)
Test: Growth of C. acnes, MIC plate method
Format: cell-based, Cutibacterium acnes
Conditions: actives at the stated % in 20 ml agar; 10 μl inoculum spotted; 37° C. 4-5 days anaerobically
Protocol: The actives whether used singly or in combination as shown in Table-1 were tested for growth of C. acnes using the invitro protocol as given below:
Protocol used for Measuring Growth (MIC Plate Method)
Working Cultures of Test Organisms
For C. acnes (ATCC 6919): Approximately 4-5 days prior to testing, a sterile plate of […] (RCM Agar) was inoculated with the challenge bacterial test organism and incubated at 37° C.±1° C. for 4-5 days anaerobically.
Test Organism Suspensions (To Be Prepared Just Before Use)
A suspension of the challenge microorganism was prepared in sterile 0.85% saline and a cell density were adjusted at 620 nm to achieve a challenge suspension concentration of approximately 1.0×10^8 colony forming units per ml for bacteria
Preparation of Sample Concentrations
• a) Aliquot of samples were taken to achieve required test concentration in 20 ml of agar system. • b) Test samples were initially dissolved in 1 ml of sample diluent (sterile d/water or solvent) to get test solutions • c) The test solutions were added to 20 ml sterile molten agar maintained at a temperature of 45-50° C., mixed thoroughly and poured into petri plates. The agar was allowed to solidify at room temperature. • d) On solidification, 10μl inoculum of prepared test culture was spotted onto respective agar surfaces in duplicates • e) The inoculated plates were allowed to stand at room temperature until the inoculum spots had been absorbed into the agar. The plates were incubated at 37° C. ±1° C. for 4-5 days anaerobically. After completion of incubation, plates were checked for growth and no growth to determine the MIC value.

Structure (SMILES) | Observation (growth of C. acnes)
Oc1ccc(C2CCCC2)cc1 [E, 4 cyclo pentyl phenol] | Growth
CCC(C)c1ccc(O)cc1 (stereo not drawn) [C, 4 sec butyl phenol] | Growth
CCCCCCc1ccc(O)cc1O [Example A, 4 hexyl resorcinol] | Growth

Source: US20250041176A1, “An antimicrobial composition” (Conopco, Inc., d/b/a UNILEVER, priority 2021, published 2025)
